Measurements from patent EP4316475A1, “MERKEL CELL ACTIVATOR, SYNAPTIC VESICLE ENHANCER, NEUROTRANSMITTER RELEASE ACCELERATOR, METHOD FOR ASSESSING NEUROTRANSMITTER RELEASE ACTIVITY OF MERKEL CELLS, AND METHOD FOR SCREENING FOR NEUROTRANSMITTER RELEASE ACCELERATOR FOR MERKEL CELLS” (Shiseido Company, Ltd., priority 2021, dated 2022).
Entries after “also recorded” stand apart in the source; their conditions may differ.

What was measured:
[1] = test system: Merkel cells; assay: Neurotransmitter release by Merkel cells in fresh skin epidermis ex vivo (FFN206 fluorescent tracer live imaging); format: cell-based, human; details: 500 µM Sandalore/BSS solution circulated from 300 s to 600 s; control BSS solution alone
Method: Fresh skin excised from the abdominal region of a healthy subject and a healthy subject, both having undergone cosmetic surgery, was used for experimentation within 5 days, after obtaining informed consent and ethical approval. The skin was exposed to 25 units/ml of a dispase-PBS solution for 15 minutes at 37°C to detach the epidermis.
The epidermis isolated from the fresh human skin was cultured for 30 minutes in a high-potassium extracellular solution (5 mM NaCl, 140 mM KCl, 10 mM HEPES (pH 7.4), 10 mM D-glucose, 2 mM MgCl2 and 2 mM CaCl2) containing FFN206 (Tocris, Catalog No. 5043), and the fluorescent-labeled neurotransmitter FFN206 was specifically taken up into the Merkel cells.
BSS (Balanced salt solution) solution (140 mM NaCl, 5 mM KCl, 10 mM HEPES (pH 7.4), 10 mM D-glucose, 2 mM MgCl2 and 2 mM CaCl2) was circulated for the first 5 minutes, as baseline. After 5 minutes (300 s) until the end of observation (600 s), circulation was with 500 µM Sandalore (Givaudan)/BSS solution (A). […]
The cell response was evaluated based on the brightness value of FFN206, using cellSens (Olympus) and MATLAB (Mathworks). […] The change in brightness value of the baseline in each ROI was determined by nonlinear approximation, and the brightness value with the effect of discoloration eliminated was determined based on the approximation results for baseline. […]

[2] = test system: Merkel cells; assay: Piccolo expression in CK20-positive Merkel cells of cultured scalp samples (fluorescent immunohistochemical staining); format: cell-based, Human; details: Sandalore 500 µM in medium from day 1, samples collected day 3, control 0.1% DMSO
Description: Human scalp from the temporal and occipital regions was taken from healthy female subjects (47 to 60 years of age) that had received common cosmetic surgery, and used after obtaining informed consent and ethical approval (Muenster University).
Scalp samples including hair follicles were taken using a 6 mm punch from the occipital region (donors 1, 2, 3 and 4) or the temporal region (donor 5) of subjects: a person (donor 1), a person (donor 2), a person (donor 3), a person (donor 4) and a donor 5). The obtained samples were placed in 25 ng/ml NGF-added DMEM/F12 medium and cultured in a 5% CO2 humidified atmosphere at 37°C (day 0). […]
The primary antibodies used were anti-CK20 antibody (distributor: Progen, Product No.: Product No.: 61054) and anti-Piccolo antibody (distributor: Novus Biologicals (Tocris), Product No.: NBP1-90250), and the subsequent secondary antibodies used were Goat anti-Rabbit IgG (H+L) Cross-Adsorbed Secondary Antibody (distributor: Invitrogen, Product No.: A-11008) and Goat anti-Mouse IgG (H+L) Highly Cross-Adsorbed Secondary Antibody (distributor: Invitrogen, Product No.: A-11030), in combination with each of the primary antibodies, respectively. […] The number of CK20-positive cells expressing Piccolo in a specified region in a photograph taken under a fluorescent microscope were counted and shown in a graph (Fig. 4C).

CC1=CCC(CCC(C)C(C)O)C1(C)C (centres unmarked) [Sandalore, 3-methyl-5-(2,2,3-trimethyl-cyclopenta-3-en-1-yl)-pentan-2-ol]
fluorescent brightness value of Merkel cells (FFN206 signal) [1]: the fluorescent brightness value decreased; also recorded: the brightness value continued to decrease beyond the reaction line calculated from baseline | number of CK20-positive cells expressing Piccolo in a specified region [2]: increased the number of Merkel cells expressing Piccolo
